Assay results taken from patent publication US10800792B2, “Inhibitors of Bruton's tyrosine kinase and method of their use” (JANSSEN PHARMACEUTICA NV, priority 2015, dated 2020).

Biological target: unphosphorylated-BTK kinase domain (UP-BTK), GST-tagged human BTK (389-659aa) (Homo sapiens (Human), UniProt Q06187)
Test: BTK kinase Lanthascreen binding assay
Conditions: Lanthascreen tracer competition, 60 minutes incubation; pIC50 = negative log of the IC50 in molar
How it was run: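 Values are pIC50, i.e. negative log of IC50 in molar, derived from concentration–response fitting. Each compound competes with a fluorescently labelled tracer for the unphosphorylated kinase domain.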

Sequence of unphosphorylated-BTK kinase domain (UP-BTK), GST-tagged human BTK (389-659aa) (Q06187 389-659): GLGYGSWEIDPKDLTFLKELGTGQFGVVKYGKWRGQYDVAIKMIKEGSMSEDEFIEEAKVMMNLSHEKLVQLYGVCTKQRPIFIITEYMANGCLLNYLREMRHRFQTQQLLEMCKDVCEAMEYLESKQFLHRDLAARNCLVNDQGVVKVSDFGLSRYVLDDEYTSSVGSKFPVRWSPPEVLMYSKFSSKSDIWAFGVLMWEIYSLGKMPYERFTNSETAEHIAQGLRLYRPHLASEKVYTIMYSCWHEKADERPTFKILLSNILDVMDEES

SMILES	BTK_I_binding pIC50
Cc1cc(Oc2ccccc2)ccc1N1C(=O)Nc2c(C(=O)N[C@@H]3CCCN(C)C3)sc3nccc1c23 [Example 873, (R)-5-(2-Methyl-4-phenoxyphenyl)-N-(1-methylpiperidin-3-yl)-4-oxo-4,5-dihydro-3H-1-thia-3,5,8-triazaacenaphthylene-2-carboxamide]	6.9
N#CN1CCC[C@@H](NC(=O)c2sc3nccc4c3c2NC(=O)N4c2ccc(Oc3ccccc3)cc2)C1 [Example 592, (R)—N-(1-Cyanopiperidin-3-yl)-4-oxo-5-(4-phenoxyphenyl)-4,5-dihydro-3H-1-thia-3,5,8-triazaacenaphthylene-2-carboxamide]	7.4
O=C(N[C@@H]1CCCNC1)c1sc2nccc3c2c1NC(=O)N3c1ccc2c(c1)OC(F)(F)O2 [Example 636, (R)-5-(2,2-Difluorobenzo[d][1,3]dioxol-5-yl)-4-oxo-N-(piperidin-3-yl)-4,5-dihydro-3H-1-thia-3,5,8-triazaacenaphthylene-2-carboxamide]	5.7
C=CC(=O)N1CCC[C@@H](NC(=O)c2sc3nccc4c3c2NC(=O)N4c2cnc(Oc3ccccc3)cc2C)C1 (single isomer, unassigned) [Example 662, (R)—N-(1-Acryloylpiperidin-3-yl)-5-(*S)-(4-methyl-6-phenoxypyridin-3-yl)-4-oxo-4,5-dihydro-3H-1-thia-3,5,8-triazaacenaphthylene-2-carboxamide]	8.1
Cc1cc(C(=O)Nc2cc(C(F)(F)F)ccn2)ccc1N1C(=O)Nc2c(C(=O)N[C@@H]3CCCN(C(=O)/C(C#N)=C/C4CC4)C3)sc3nccc1c23 [Example 835, (R,E)-N-(1-(2-Cyano-3-cyclopropylacryloyl)piperidin-3-yl)-5-(2-methyl-4-((4-(trifluoromethyl)pyridin-2-yl)carbamoyl)phenyl)-4-oxo-4,5-dihydro-3H-1-thia-3,5,8-triazaacenaphthylene-2-carboxamide]	8.0
C=CC(=O)N1CCC[C@@H](NC(=O)c2sc3nccc4c3c2NC(=O)N4c2ccnc(-c3cccnc3)c2)C1 [Example 701, (R)-5-([2,3′-Bipyridin]-4-yl)-N-(1-acryloylpiperidin-3-yl)-4-oxo-4,5-dihydro-3H-1-thia-3,5,8-triazaacenaphthylene-2-carboxamide]	7.2
Cc1nc(Oc2ccccc2)ccc1N1C(=O)Nc2c(C(=O)N[C@@H]3CCCNC3)sc3nccc1c23 [Example 711, (R)-5-(2-methyl-6-phenoxypyridin-3-yl)-4-oxo-N-(piperidin-3-yl)-4,5-dihydro-3H-1-thia-3,5,8-triazaacenaphthylene-2-carboxamide]	6.6
C=CC(=O)N1CCC[C@@H](NC(=O)c2sc3nccc4c3c2NC(=O)N4c2ccc(OC3COC3)cc2)C1 [Example 612, (R)—N-(1-Acryloylpiperidin-3-yl)-5-(4-(oxetan-3-yloxy)phenyl)-4-oxo-4,5-dihydro-3H-1-thia-3,5,8-triazaacenaphthylene-2-carboxamide]	6.1
O=C(N[C@@H]1CCCNC1)c1sc2nccc3c2c1NC(=O)N3c1cccc(Oc2ccccc2)n1 [Example 645, (R)-4-Oxo-5-(6-phenoxypyridin-2-yl)-N-(piperidin-3-yl)-4,5-dihydro-3H-1-thia-3,5,8-triazaacenaphthylene-2-carboxamide]	<5
Cc1nc(Oc2ccccc2)ccc1N1C(=O)Nc2c(C(=O)N[C@@H]3CCNC3)sc3nccc1c23 (single isomer, unassigned) [Example 717, (R)-5-(*S)-(2-Methyl-6-phenoxypyridin-3-yl)-4-oxo-N-(pyrrolidin-3-yl)-4,5-dihydro-3H-1-thia-3,5,8-triazaacenaphthylene-2-carboxamide]	6.4
C=CC(=O)N1CCC[C@@H](NC(=O)c2sc3nccc4c3c2NC(=O)N4c2cc(-c3ccccc3)ncn2)C1 [Example 685, (R)—N-(1-Acryloylpiperidin-3-yl)-4-oxo-5-(6-phenylpyrimidin-4-yl)-4,5-dihydro-3H-1-thia-3,5,8-triazaacenaphthylene-2-carboxamide]	8.1

Same assay, conditions: Lanthascreen tracer competition, 60 minutes incubation; pIC50 = negative log of the IC50 in molar; read-out: BTK_I_binding pIC50 (converted)

SMILES	IC50
O=C(N[C@@H]1CCCNC1)c1sc2nccc3c2c1NC(=O)N3c1cccc(OC2CCCC2)c1 [Example 613, (R)-5-(3-(Cyclopentyloxy)phenyl)-4-oxo-N-(piperidin-3-yl)-4,5-dihydro-3H-1-thia-3,5,8-triazaacenaphthylene-2-carboxamide]	794 nM

Same assay, conditions: pIC50 = negative log of the IC50 in molar; 60 minutes incubation, 50 nM Tracer 236

SMILES	BTK_I_binding pIC50
Cc1cc(Oc2ccccc2)ccc1N1C(=O)Nc2c(C(=O)N[C@H]3CNC[C@H](O)C3)sc3nccc1c23 [Example 179, N-((3R,5R)-5-Hydroxypiperidin-3-yl)-5-(2-methyl-4-phenoxyphenyl)-4-oxo-4,5-dihydro-3H-1-thia-3,5,8-triazaacenaphthylene-2-carboxamide]	7.0
C=CC(=O)N1CC[C@@H](NC(=O)c2sc3nccc4c3c2NC(=O)N4c2c(Cl)ccc3c2OCO3)C1 [Example 209, (R)—N-(1-Acryloylpyrrolidin-3-yl)-5-(5-chlorobenzo[d][1,3]dioxol-4-yl)-4-oxo-4,5-dihydro-3H-1-thia-3,5,8-triazaacenaphthylene-2-carboxamide]	7.1
CNCC(=O)N1CCC[C@@H](NC(=O)c2sc3nccc4c3c2NC(=O)N4c2ccc(Oc3ccccc3)cc2C)C1 [Example 91, (R)-5-(2-Methyl-4-phenoxyphenyl)-N-(1-(2-(methylamino)acetyl)piperidin-3-yl)-4-oxo-4,5-dihydro-3H-1-thia-3,5,8-triazaacenaphthylene-2-carboxamide]	7.3
C=CC(=O)N1CCC[C@@H](NC(=O)c2sc3nccc4c3c2NC(=O)N4c2ccc(C)cc2C)C1 [Example 86, (R)—N-(1-Acryloylpiperidin-3-yl)-5-(2,4-dimethylphenyl)-4-oxo-4,5-dihydro-3H-1-thia-3,5,8-triazaacenaphthylene-2-carboxamide]	6.7
Cc1c(N2C(=O)Nc3c(C(=O)N[C@@H]4CCCN(C(=O)CCO)C4)sc4nccc2c34)ccc(Oc2ccccc2)c1F [Example 128, (R)-5-(3-Fluoro-2-methyl-4-phenoxyphenyl)-N-(1-(3-hydroxypropanoyl)piperidin-3-yl)-4-oxo-4,5-dihydro-3H-1-thia-3,5,8-triazaacenaphthylene-2-carboxamide]	7.2
Cc1ccccc1Oc1ccc(N2C(=O)Nc3c(C(=O)N[C@@H]4CCCN(C)C4)sc4nccc2c34)c(C)c1 [Example 148, (R)-5-(2-Methyl-4-(o-tolyloxy)phenyl)-N-(1-methylpiperidin-3-yl)-4-oxo-4,5-dihydro-3H-1-thia-3,5,8-triazaacenaphthylene-2-carboxamide]	6.9
C=CC(=O)N1C[C@H](NC(=O)c2sc3nccc4c3c2NC(=O)N4c2ccc(Oc3ccccc3)cc2C)C[C@H](OC)C1 [Example 14, N-((3R,5S)-1-Acryloyl-5-methoxypiperidin-3-yl)-5-(2-methyl-4-phenoxyphenyl)-4-oxo-4,5-dihydro-3H-1-thia-3,5,8-triazaacenaphthylene-2-carboxamide]	7.4
CN1CCC[C@@H](NC(=O)c2sc3nccc4c3c2NC(=O)N4c2ccc(Oc3ccccc3)cc2Cl)C1 [Example 133, (R)-5-(2-Chloro-4-phenoxyphenyl)-N-(1-methylpiperidin-3-yl)-4-oxo-4,5-dihydro-3H-1-thia-3,5,8-triazaacenaphthylene-2-carboxamide]	7.0
Cc1cc(Oc2ccccc2C2CC2)ccc1N1C(=O)Nc2c(C(=O)N[C@@H]3CCCN(C)C3)sc3nccc1c23 [Example 201, (R)-5-(4-(2-Cyclopropylphenoxy)-2-methylphenyl)-N-(1-methylpiperidin-3-yl)-4-oxo-4,5-dihydro-3H-1-thia-3,5,8-triazaacenaphthylene-2-carboxamide]	6.6

Same assay, conditions: unphosphorylated-BTK kinase domain, 50 nM Tracer 236, 60 minutes; pIC50 = negative log of the IC50 in molar

SMILES	BTK_I_binding pIC50
C=CC(=O)N1CC[C@@H](NC(=O)c2sc3nccc4c3c2NC(=O)N4c2ccc(Oc3ccccc3)nn2)C1 [Example 311, (R)—N-(1-Acryloylpyrrolidin-3-yl)-4-oxo-5-(6-phenoxypyridazin-3-yl)-4,5-dihydro-3H-1-thia-3,5,8-triazaacenaphthylene-2-carboxamide]	5.9
C=CC(=O)N1CC[C@@H](NC(=O)c2sc3nccc4c3c2NC(=O)N4c2ccc(C)cc2C)C1 [Example 304, (R)—N-(1-Acryloylpyrrolidin-3-yl)-5-(2,4-dimethylphenyl)-4-oxo-4,5-dihydro-3H-1-thia-3,5,8-triazaacenaphthylene-2-carboxamide]	6.0
C=CC(=O)N1CC[C@@H](NC(=O)c2sc3nccc4c3c2NC(=O)N4c2ccccc2)C1 [Example 337, (R)—N-(1-Acryloylpyrrolidin-3-yl)-4-oxo-5-phenyl-4,5-dihydro-3H-1-thia-3,5,8-triazaacenaphthylene-2-carboxamide]	5.4
C=CC(=O)N1CC[C@@H](NC(=O)c2sc3nccc4c3c2NC(=O)N4c2ccccc2C)C1 [Example 314, (R)—N-(1-Acryloylpyrrolidin-3-yl)-4-oxo-5-(o-tolyl)-4,5-dihydro-3H-1-thia-3,5,8-triazaacenaphthylene-2-carboxamide]	5.9
C=CC(=O)N1CCC[C@@H](NC(=O)c2sc3nccc4c3c2NC(=O)N4c2cccc(C3CC3)c2)C1 [Example 569, (R)—N-(1-Acryloylpiperidin-3-yl)-5-(3-cyclopropylphenyl)-4-oxo-4,5-dihydro-3H-1-thia-3,5,8-triazaacenaphthylene-2-carboxamide]	7.0
Cc1cc(Oc2ccccc2)ccc1N1C(=O)Nc2c(C(=O)NCCN3CCOC[C@H]3C)sc3nccc1c23 [Example 296, (R)-5-(2-Methyl-4-phenoxyphenyl)-N-(2-(3-methylmorpholino)ethyl)-4-oxo-4,5-dihydro-3H-1-thia-3,5,8-triazaacenaphthylene-2-carboxamide]	6.1
